Experimental data published in patent US7148228B2, “Pyrazolopyrimidines and related analogs as HSP90-inhibitors” (Conforma Therapeutics Corporation, priority 2003, dated 2006).

Legend:
[1] = tested on: HER2/Neu protein; assay: HER2 degradation assay; assay type: cell-based; conditions: Homo sapiens; 50% degradation of HER2/Neu protein, MCF7 cells, 16 h incubation
Experimental: MCF7 breast carcinoma cells (ATCC) were grown in Dulbecco's modified Eagle's medium (DMEM) containing 10% fetal bovine serum (FBS) and 10 mM HEPES, and plated in 24 well plates (50% confluent). Twenty-four hrs later (cells are 65–70% confluent), test compounds were added and incubated overnight for 16 h. […] The wells were washed with 1 mL phosphate buffered saline (PBS), and 200 μL trypsin was added to each well. After trypsinization was complete, 50 μL of FBS was added to each well. Then 200 μL cells was transferred to 96 well plates. The cells were pipetted up and down to obtain a single cell suspension. The plates were centrifuged at 2,500 rpm for 1 min using a Sorvall Legend RT™ tabletop centrifuge (Kendro Laboratory Products, Asheville, N.C.). The cells were then washed once in PBS containing 0.2% BSA and 0.2% sodium azide (BA buffer). Phycoerythrin (PE) conjugated anti HER2/Neu antibody (Becton Dickinson, #340552), or PE conjugated anti-keyhole limpet hemacyanin [KLH] (Becton Dickinson, #340761) control antibody was added at a dilution of 1:20 and 1:40 respectively (final concentration was 1 μg/mL) and the cells were pipeted up and down to form a single cell suspension, and incubated for 15 mins. The cells were washed twice with 200 μL BA buffer, and resuspended in 200 μL BA buffer, and transferred to FACSCAN tubes with an additional 250 μL BA buffer. Samples were analyzed using a FACSCalibur™ flow cytometer (Becton Dickinson, San Jose, Calif.) equipped with Argon-ion laser that emits 15 mW of 488 nm light for excitation of the PE fluorochrome. 10,000 events were collected per sample. A fluorescence histogram was generated and the mean fluorescence intensity (MFI) of each sample was determined using Cellquest software. The background was defined as the MFI generated from cells incubated with control IgG-PE, and was subtracted from each sample stained with the HER2/Neu antibody. Cells incubated with DMSO was always done as untreated controls since the compounds were resuspended in DMSO. Percent degradation of HER2 was calculated as follows: % HER2 degraded=[(MFI untreated cells−MFI treated cells)/MFI untreated cell]×100
IC50 is defined as the concentration at which there was 50% degradation of the HER2/Neu protein.

[2] = tested on: rHSP90 in the MCF7 cell lysates; assay: Cell lysate binding assay (biotin-GM competition); conditions: concentration for 50% inhibition of biotin-GM binding to rHSP90 in MCF7 cell lysates
Experimental: MCF7 breast carcinoma cell lysates were prepared by douncing in lysing buffer (20 mM HEPES, pH 7.3, 1 mM EDTA, 5 mM MgCl2, 100 mM KCl), and then incubated with or without test compound for 30 mins at 4° C., followed by incubation with biotin-GM linked to BioMag™ streptavidin magnetic beads (Qiagen) for 1 hr at 4° C. The tubes were placed on a magnetic rack, and the unbound supernatant removed. The magnetic beads were washed three times in lysis buffer and boiled for 5 mins at 95° C. in SDS-PAGE sample buffer. Samples were analyzed on SDS protein gels, and Western blots done for rHSP90. Bands in the Western Blots were quantitated using the Bio-rad Fluor-S MultiImager, and the % inhibition of binding of rHSP90 to the biotin-GM was calculated.
The IC50 reported is the concentration of test compound needed to achieve 50% inhibition of the biotin-GM binding to rHSP90 in the MCF7 cell lysates.

[3] = tested on: MCF7 breast carcinoma cells; assay: MTS assay; assay type: cell-based; conditions: Homo sapiens, concentration giving 50% viable cell number
Experimental: MTS assays measures the cytotoxicity of geldanamycin derivatives. MTS (3-(4,5-dimethylthiazol-2-yl)-5-(3-carboxymethoxyphenyl)-2-(4-sulfophenyl)-2H-tetrazolium is a tetrazolium dye that is converted to a formazan product by dehydrogenase enzymes of metabolically active cells (Corey, A. et al. “Use of an aqueous soluble tetrazolium/formazan assay for cell growth assays in culture,” Cancer Commun. 1991, 3, 207–212). Cells were seeded in 96 well plates at 2000 cells/well and allowed to adhere overnight in Dulbecco's modified Eagle's medium supplemented with 10% fetal bovine serum. The final culture volume was 100 μl. Viable cell number was determined by using the Celltiter 96 AQueous Non-radioactive Cell Proliferation Assay (Promega, Madison Wis.). The MTS/PMS (phenazine methosulfate) solution was mixed at a ratio of 20:1, and 20 μL was added per well to 100 μl of culture medium. After 2–4 hours, the formation of the formazan product was measured at 490 nm absorbance using a multiwell plate spectrophotometer. Background was determined by measuring the Abs 490 nm of cell culture medium and MTS-PMS in the absence of cells and was subtracted from all values. Percent viable cells was calculated as follows: % viable cells=(Abs at 490 nm treated cells/Abs at 490 nm untreated cells)×100
The effect of selected compounds of the invention on MCF7 breast carcinoma cells according to the MTS assay is summarized in Table 2. IC50 was defined as the concentration of the compound which gave rise to 50% viable cell number.

SMILES	IC50 [1] [µM]	IC50 [2] [µM]	IC50 [3] [µM]
Cc1c[n+]([O-])c(Cn2nc(-c3ccccc3)c3c(Cl)nc(N)nc32)c(C)c1Cl [Example 35, 4-Chloro-1-(4-chloro-3,5-dimethyl-1-oxy-pyridin-2-ylmethyl)-3-phenyl-1H-pyrazolo[3,4-d]pyrimidin-6-ylamine]	0.02	0.08	1
COc1c(C)cnc(Cn2ncc3c(Cl)nc(N)nc32)c1C [Example 7, 4-Chloro-1-(4-methoxy-3,5-dimethyl-pyridin-2-ylmethyl)-1H-pyrazolo[3,4-d]pyrimidin-6-ylamine]	0.05	0.14	0.13
COc1c(C)c(Cl)nc(Cn2ncc3c(Cl)nc(N)nc32)c1C [Example 8, 4-Chloro-1-(6-chloro-4-methoxy-3,5-dimethyl-pyridin-2-ylmethyl)-1H-pyrazolo[3,4-d]pyrimidin-6-ylamine]	0.14		0.5
COc1c(C)cnc(Cn2nc(C(C)C)c3c(Cl)nc(N)nc32)c1C [Example 31, 4-Chloro-3-isopropyl-1-(4-methoxy-3,5-dimethyl-pyridin-2-ylmethyl)-1H-pyrazolo[3,4-d]pyrimidin-6-ylamine]	0.05		0.3
Cc1c[n+]([O-])c(Cn2nc(C)c3c(Cl)nc(N)nc32)c(C)c1Cl [Example 25, 4-Chloro-1-(4-chloro-3,5-dimethyl-1-oxy-pyridin-2-ylmethyl)-3-methyl-1H-pyrazolo[3,4-d]pyrimidin-6-ylamine]	0.03		0.3
Cc1c[n+]([O-])c(Cn2ncc3c(Cl)nc(N)nc32)c(C)c1Br [Example 15, 1-(4-Bromo-3,5-dimethyl-1-oxy-pyridin-2-ylmethyl)-4-chloro-1H-pyrazolo[3,4-d]pyrimidin-6-ylamine]	0.9		
Cc1cnc(Cn2nc(-c3ccccc3)c3c(Cl)nc(N)nc32)c(C)c1Cl [Example 33, 4-Chloro-1-(4-chloro-3,5-dimethyl-pyridin-2-ylmethyl)-3-phenyl-1H-pyrazolo[3,4-d]pyrimidin-6-ylamine]	0.16		0.6
Cc1cnc(Cn2ncc3c(Cl)nc(N)nc32)c(C)c1Cl [Example 9, 4-Chloro-1-(4-chloro-3,5-dimethyl-pyridin-2-ylmethyl)-1H-pyrazolo[3,4-d]pyrimidin-6-ylamine]	0.09		0.3
COc1c(C)cnc(Cn2nc(-c3ccccc3)c3c(Cl)nc(N)nc32)c1C [Example 32, 4-Chloro-1-(4-methoxy-3,5-dimethyl-pyridin-2-ylmethyl)-3-phenyl-1H-pyrazolo[3,4-d]pyrimidin-6-ylamine]	0.04		0.08

Results, then the compound that gave them:

IC50 [1] [µM]	IC50 [2] [µM]	IC50 [3] [µM]	SMILES
0.05	0.09		Cc1cnc(Cn2nc(C)c3c(Cl)nc(N)nc32)c(C)c1Cl [Example 26, 4-Chloro-1-(4-chloro-3,5-dimethyl-pyridin-2-ylmethyl)-3-methyl-1H-pyrazolo[3,4-d]pyrimidin-6-ylamine]
0.03		1	Cc1c[n+]([O-])c(Cn2nc(C)c3c(Cl)nc(N)nc32)c(C)c1Br [Example 24, 1-(4-Bromo-3,5-dimethyl-1-oxy-pyridin-2-ylmethyl)-4-chloro-3-methyl-1H-pyrazolo[3,4-d]pyrimidin-6-ylamine]
0.12		1	Cc1cnc(Cn2nc(-c3ccccc3)c3c(Cl)nc(N)nc32)c(C)c1Br [Example 34, 1-(4-Bromo-3,5-dimethyl-pyridin-2-ylmethyl)-4-chloro-3-phenyl-1H-pyrazolo[3,4-d]pyrimidin-6-ylamine]
0.04		0.1	COc1c(C)cnc(Cn2nc(C)c3c(Cl)nc(N)nc32)c1C [Example 23, 4-Chloro-1-(4-methoxy-3,5-dimethyl-pyridin-2-ylmethyl)-3-methyl-1H-pyrazolo[3,4-d]pyrimidin-6-ylamine]
0.85	0.1	1	CCc1nn(Cc2ncc(C)c(OC)c2C)c2nc(N)nc(Cl)c12 [Example 29, 4-Chloro-3-ethyl-1-(4-methoxy-3,5-dimethyl-pyridin-2-ylmethyl)-1H-pyrazolo[3,4-d]pyrimidin-6-ylamine]
0.09	0.11	1	Cc1cnc(Cn2ncc3c(Cl)nc(N)nc32)c(C)c1Br [Example 14, 1-(4-Bromo-3,5-dimethyl-pyridin-2-ylmethyl)-4-chloro-1H-pyrazolo[3,4-d]pyrimidin-6-ylamine]
0.04		1	Cc1cnc(Cn2nc(C)c3c(Cl)nc(N)nc32)c(C)c1Br [Example 28, 1-(4-Bromo-3,5-dimethyl-pyridin-2-ylmethyl)-4-chloro-3-methyl-1H-pyrazolo[3,4-d]pyrimidin-6-ylamine]
0.11		1	CCc1nn(Cc2ncc(C)c(Cl)c2C)c2nc(N)nc(Cl)c12 [Example 30, 4-Chloro-1-(4-chloro-3,5-dimethyl-pyridin-2-ylmethyl)-3-ethyl-1H-pyrazolo[3,4-d]pyrimidin-6-ylamine]
